This is an account of results in patent US8440617B2, “Hyperbaric treatment in wound healing” (The Trustees of the University of Pennsylvania, priority 2007, dated 2013).

Data set [1] in a line: Induction of diabetes with STZ, serum glucose by glucometer. In kind it is in vivo, mouse. To be noted: 60 mg/kg i.p. daily for 5 d. The protocol: (§1) Tie2-GFP, wild-type or chimeric FVB mice at 6-12 wk of age were treated with STZ (Sigma-Aldrich) to induce diabetes. Mice were rendered diabetic by i.p. administration of 60 mg/kg STZ in 50 mM sodium citrate, pH 4.5, daily for 5 d. Control mice were treated with daily injections of citrate buffer. Serum glucose was measured from the mouse tail vein using a glucometer. Once serum glucose reached 250 mg/dL, mice were followed with daily measurements for 1 wk prior to use in experiments. Serum glucose levels in STZ mice averaged 461 mg/dL with a range of 372-520 mg/dL, while control mice serum glucose mean level was 120 mg/dL with a range of 94-135 mg/dL. Wounds were induced on the ventral surface of the mouse thigh using a 4 mm punch biopsy. Full-thickness skin was removed, exposing the underlying muscle.

Data set [2] deals with circulating EPCs (CXCR4+/VEGFR2+, Tie2+/VEGFR2+). Description: Circulating EPCs by flow cytometry in STZ-diabetic mice. In kind it is in vivo, mouse. The protocol:
as §1
(§2) For HBO treatment, mice were placed in an animal hyperbaric chamber (Reneau Corp.) and subjected to 100% oxygen at 2.4 atmospheres absolute (ATA) for 90 min (Davis Wound Healing Protocol). To measure continuous, real-time BM NO levels, NO microelectrodes was inserted into the femoral marrow cavity as previously described. An osteotomy was created on the patellar surface of the murine femur using a 25 G beveled needle, allowing the electrode to be lowered into the marrow space when the animal was placed in the hyperbaric chamber. In some mice, pretreatment with L-NAME (40 mg/kg i.p.) (Sigma-Aldrich) was given 2 h prior to exposure to HBO.
Mobilization of EPCs into circulation was studied using flow cytometry as previously described. Cells isolated from mice were incubated with various Abs (BD Biosciences). Isotype matched mouse immunoglobulins served as controls. One million viable cells were analyzed per sample using an LSR2 multicolor flow cytometer (BD Biosciences). Data was analyzed using FlowJo software (Treestar, Inc.).
Physiologically, increased levels of BM NO result in activation of MMP-9 and conversion of kit ligand to its soluble form, ultimately generating EPC release into circulation. To study the effects of the hyperoxia-induced rise in NO levels in the marrow cavity on mobilization of EPCs into circulation, peripheral blood from diabetic mice was analyzed for EPCs using flow cytometry. A determination of whether hyperoxia, induced by HBO, increases the number of circulating EPCs in the peripheral blood of diabetic mice was made. Specifically, peripheral blood of diabetic mice was examined 18 h after a single HBO treatment. After excluding dead DAPI^+labeled cells, candidate lymphocytes, identified by their typical appearance on forward and side scatter, were gated and CD45^+/CD3^+cell populations were excluded. […] Therefore, several marker combinations were used to quantitate circulating EPCs. […]
In general terms: Flow cytometry measures light scatter and fluorescence of single cells or particles in a stream.

A further data set concerns stem cell factor (SCF). In words: Plasma stem cell factor by Quantikine M immunoassay in mice (Table I). In kind it is in vivo, mouse. Conditions: for Plasma SCF if mice pre-treated with L-NAME: L-NAME pre-treatment.
The subject of data set [3] is EPC (cells co-expressing CD34 and Sca-1). In words: EPC mobilization (CD34+/Sca-1+ cells in peripheral blood) in mice exposed to HBO2. Conditions: wild-type mice, 40 mg/kg i.p. 2 hours prior to pressurization. The data set is classed as in vivo, mouse. The protocol: In the initial studies searching for the mechanisms for EPC mobilization with HBO2 EPC (assessed as cells that co-expressed CD34 and stem cell antigen-1 (Sca-1)) were also evaluated in peripheral blood of mice. […] In preliminary studies, mice were exposed to HBO2 for 90 minutes at up to 2.8 ATA and also to a pressure control, 2.8 ATA pressure using a gas containing 7.5% O2 (so that O2 partial pressure was the same as ambient air, 0.21 ATA O2). In select studies, mice were pre-treated with intraperitoneal L-nitroarginine methyl ester (L-NAME, to inhibit nitric oxide synthase [NOS]), 40 mg/kg i.p. administered 2 hours prior to pressurization). In anesthetized mice, blood was obtained by aortic puncture and bone marrow was harvested by clipping the ends off a tibia and flushing the marrow cavity with 1 ml PBS. Exposure to 2.8 ATA O2 (but not 100% O2 at ambient pressure or 2.8 ATA pressure at a total O2 partial pressure of only 0.21 ATA O2) increased EPC mobilization immediately after treatment, as well as 16 hrs post-treatment, and with repeated treatments (FIG. 4).
There is precedence for rapid mobilization of stem cells from bone marrow, but most emigration is believed to occur after a period of cell proliferation within the marrow niche.

The subject of another data set is ischemic hindlimb wounds. In words: Hindlimb ischemia (femoral ligation/excision): perfusion, wound BMD EPC and wound healing with daily HBO2. The data set is classed as in vivo, mouse. Conditions: 40 mg/kg i.p. The protocol:
In addition, it was observed that HBO2 daily treatments (2.4ATA 100% O2 for 90 min) improved hindlimb perfusion by Laser Doppler Imaging (LDF) after femoral ligation/excision (FIG. 6) and increased the bone marrow-derived (BMD) EPC within the incisional wounds, 3 d post-wounding (with 4 HBO2 treatments) (FIG. 7). By day 8 after wounding, ischemic excisional punch biopsy wounds treated daily with HBO2 healed faster (FIG. 8). […] Each day animals were harvested, and blood (retro-orbital bleeding) and bone marrow (flushing of tibias and femurs) collected (3 mice for each time point had bone marrow collected and 5 mice for each time point had blood collected). VEGFR-2 (kdr) mRNA was semi-quantitated by RT PCR.

Data set [4] relates to NO synthesis in bone marrow (NOS). In words: Real-time bone marrow NO measurement with NO microelectrode during HBO. In kind it is in vivo, mouse. The protocol: as §2
In early studies, it was hypothesized that HBO2 augments stem cell mobilization because it stimulates •NO synthesis in the bone marrow, as •NO is known to play a central role with stem cell release from bone marrow. […] Mice were placed in a hyperbaric chamber where, while breathing air, baseline measurements were obtained. The chamber was then flushed with 100% O2 and compressed to 2.4 ATA O2.
Physiologically, the NO-mediated EPC release into circulation occurs in response to tissue-level hypoxia, although this compensatory response is inadequate in the setting of diabetes and results in severe defects in neovascularization and wound healing. […] Therefore, it was sought to utilize HBO as a tool to augment EPC release into circulation and further study both EPC mobilization and wound-homing mechanisms in the presence of diabetes. The goal was to determine whether hyperoxia stimulates NO production in the BM of diabetic mice via a NOS-mediated pathway and whether this pathway is impaired in diabetes. To test this hypothesis, Nafion polymer—coated NO microsensors were inserted into the femur BM space of both STZ induced diabetic and nondiabetic mice to measure real-time NO levels within the BM prior to and is during HBO-induced hyperoxia. […] It was speculated, that this was likely due to a compensatory effect from other NOS isoforms, and therefore the level of both iNOS and nNOS was examined in diabetic mice. […] However, no observation was made of any changes in the phosphorylation of these NOS isoforms.

Data set [5] deals with diabetic cutaneous wounds. Description: Peripheral wound healing (wound closure) in diabetic mice. In kind it is in vivo, mouse. To be noted: diabetic mice, 6 d post-wounding, FIG. 17A. As for the experimental part: as §1
Initial wound surface area was recorded and wounds were then followed serially with daily digital photographs using an Olympus digital camera. Photographs contained an internal scale to allow for standard calibration of measurements. Wound area was quantified using ImageJ software. Wound area was expressed as the percentage of original wound size. Wounds were followed for 6 d and mice were sacrificed at the conclusion of the experiment.
EPCs play a key role in vasculogenesis and cutaneous tissue repair. It was hypothesized that increased numbers of EPCs in circulation, along with enhanced EPC homing to wounds, results in improved wound healing in diabetes. Diabetic wound closure rates were studied, in response to treatment with HBO and SDF-1α alone and in combination. Wounded diabetic mice underwent daily wound injections with SDF-1α, PBS, HBO, or SDF-1α+HBO treatments. […] This healing response was greater than the response to either treatment modality alone. In addition, histochemical analysis was conducted to examine blood vessel density (VEGFR2 staining), cellularity and stromagenesis (H&E staining), and extracellular constitution (trichrome staining) in wound tissues. […]

Data set [6] is described as follows: Mouse serum SDF-1α ELISA after wound injection. The data set is classed as in vivo. Conditions: 2 h following wound injection of SDF-1α. The protocol: Mouse serum SDF-1α concentration was measured by Quantikine® mouse SDF-1α ELISA kit (R&D Systems) based on manufacturer's protocol.
Data set [7] concerns wound EPCs (GFP+/VEGFR2+). In words: EPC homing to wounds in diabetic GFP bone marrow chimeric mice. In kind it is in vivo, mouse. As for the experimental part:
All procedures were done with approval from the University of Pennsylvania Institutional Animal Care and Use Committee (IACUC). 6-12 wk-old FVB wild-type mice (FVB/NJ), GFP (FVB/Tg) and Tie2-GFP (Tg(TIE2GFP)87 Sato/J) were purchased from The Jackson Laboratory. For all surgical procedures, mice were anesthetized with an i.p. injection of 80 mg/kg of ketamine (Phoenix Scientific, Inc.) and 20 mg/kg xylazine (Vedco Inc.). For BM transplantation experiments, 1×10^7 BM cells from GFP mice were transplanted to γ-irradiated (900 Rad) FVB wild type mouse via tail vein. […] For local wound SDF-1α injection, SDF-1α protein (R&D Systems) was reconstituted in PBS and injected into the wound base (25 μg/Kg).
For immunostaining, paraffin embedded serial sections (5 μm) were first underwent standard deparaffinizing and rehydration procedures and then probed with various Abs. To assess wound SDF-1α^+ cells, sections were double-stained with HTC-conjugated anti-SDF-1α and PE-conjugated different tissue-specific Abs (eBiosciences). To detect blood vessels in wound, sections were stained with HTC-conjugated anti-VEGFR2Ab. […] Tissue sections were analyzed using fluorescence microscopy and ImageJ (NIH) software to quantitate fluorescent intensity. In trichrome stained slides, blue stain (collagen content) was also quantitatively analyzed by ImageJ. […]

Another data set deals with wound granulation tissue. Description: Histochemistry of diabetic wound tissue (VEGFR2 vessel density, H&E, trichrome collagen). In kind it is in vivo, mouse. Conditions: diabetic wounds at d 6, FIG. 17D-E. The source says:
(§3) For immunostaining, paraffin embedded serial sections (5 μm) were first underwent standard deparaffinizing and rehydration procedures and then probed with various Abs. To assess wound SDF-1α^+ cells, sections were double-stained with HTC-conjugated anti-SDF-1α and PE-conjugated different tissue-specific Abs (eBiosciences). To detect blood vessels in wound, sections were stained with HTC-conjugated anti-VEGFR2Ab. For examination of wound EPC recruitment in BM transplantation experiment, sections were double-stained with FITC-GFP and PE-VEGFR2 (BD Biosciences). Nuclei were counterstained with Hoescht dye. Masson's trichrome staining and H&E staining were performed using standard method and all reagents were from Sigma-Aldrich. Tissue sections were analyzed using fluorescence microscopy and ImageJ (NIH) software to quantitate fluorescent intensity. In trichrome stained slides, blue stain (collagen content) was also quantitatively analyzed by ImageJ.
EPCs play a key role in vasculogenesis and cutaneous tissue repair. It was hypothesized that increased numbers of EPCs in circulation, along with enhanced EPC homing to wounds, results in improved wound healing in diabetes. Diabetic wound closure rates were studied, in response to treatment with HBO and SDF-1α alone and in combination. Wounded diabetic mice underwent daily wound injections with SDF-1α, PBS, HBO, or SDF-1α+HBO treatments. […]

In the next data set the test system is SDF-1α in wound tissue. Description: Wound SDF-1α level (immunostaining). The data set is classed as in vivo, mouse. To be noted: after SDF-1α injection, compared to nondiabetic wound.
From the text: as §3

“Also recorded” adds a separate entry of the source.

For the compound `CN(N=O)C(=O)N[C@@H](C=O)[C@@H](O)[C@H](O)[C@H](O)CO` [STZ, streptozocin], in [1], the “Serum glucose, average” value stood at 461 mg/dL and the “Serum glucose, range” value was in the range of 372 to 520 mg/dL.
Consider `COC(=O)[C@@H](N)CCCNC(=N)N[N+](=O)[O-]` [L-NAME, L-nitroarginine methyl ester], for which the “EPC mobilization following HBO in L-NAME pre-treated animals” value in [2] (mouse, in vivo) is “No increase; also recorded: inhibited”. For the same compound, the “Plasma SCF if mice pre-treated with L-NAME” value was 39.4 ± 1.9 pg/mL with stem cell factor (SCF) (air-breathing (control) mice) and 42.4 ± 2.5 pg/mL in the data set with stem cell factor (SCF) (then 2.8 ATA O2, 16 hours after). Besides, the “HBO2-induced SCF elevation with L-NAME” value with stem cell factor (SCF) (mouse, in vivo) is on record as “blocked”. In data set [3], the “EPC mobilization with L-NAME injected before HBO2” value is recorded as “did not occur”. Further, the “HBO2 wound healing improvements with L-NAME prior to HBO2” value in the data set on ischemic hindlimb wounds is listed as “not observed”. The “NO signal in bone marrow with L-NAME pre-treatment” value in data set [4] (40 mg/kg ip before 2.4 ATA O2) is recorded as “no •NO signal was detected”. The “hyperoxia-induced increases in BM NO production after pretreatment” value in data set [4] (diabetic and nondiabetic mice) is recorded as “completely inhibited; also recorded: Complete inhibition”.
With SDF-1α, in [2] (wounded diabetic mice, 48 h post-wounding, FIG. 15A), the “circulating EPCs versus other groups / PBS” value was “statistically significant increase”. In addition, the “increase in circulating EPCs (CXCR4+/VEGFR2+)” value in data set [2] (wounded diabetic mice, daily treatment, 48 h post-wounding) is on record as 2 fold. For the same compound, the “wound healing rates compared with PBS treated controls” value in [5] was “statistically improved”. Moreover, in data set [6], the “systemic (peripheral blood) SDF-1α concentration” value is “increased”. Besides, the “increase in wound-level EPCs (GFP+/VEGFR2+)” value in [7] (diabetic chimeric mice, 3 d of treatment, vs untreated diabetic mice) is reported as 3 fold. The “EPCs recruited/homing to wound tissue” value in data set [7] (diabetic mice) was “significant increase”. Moreover, in the data set with wound granulation tissue, the “collagen deposit and vessel density” value was “significant increase”. In addition, the “local SDF-1α level in diabetic wound” value in the data set with SDF-1α in wound tissue is recorded as “dramatically increased”.
